# Biological target: human Icmt (hIcmt) (Homo sapiens, UniProt O60725)
# Assay: in vitro vapor diffusion assay for hIcmt activity
# Type: biochemical
# Details: not given
# Chain of human Icmt (hIcmt) (O60725 whole entry, the tested form may be a part): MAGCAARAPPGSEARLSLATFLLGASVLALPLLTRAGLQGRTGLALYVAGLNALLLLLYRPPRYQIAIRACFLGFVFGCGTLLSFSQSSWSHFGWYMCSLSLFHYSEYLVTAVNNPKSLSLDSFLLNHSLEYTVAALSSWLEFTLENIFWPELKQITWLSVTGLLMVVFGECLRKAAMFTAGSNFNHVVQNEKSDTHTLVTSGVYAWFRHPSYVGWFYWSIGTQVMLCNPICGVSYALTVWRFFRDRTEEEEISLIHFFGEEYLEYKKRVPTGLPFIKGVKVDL
row,SMILES,hIcmt inhibitory activity (in words)
1,c1ccc(C(=C2CCOCC2)c2ccc3ccccc3c2)cc1 [Compound 6],inactive
2,c1ccc2cc(CC3CCOCC3)ccc2c1 [Compound 7],abolished activity
3,O=C(c1ccc2ccccc2c1)C1CCOCC1 [Compound 8],abolished activity
4,OC(c1ccccc1)(c1cccs1)C1CCOCC1 (centres unmarked) [Compound 9],inactive
5,c1ccc(C(=C2CCOCC2)c2cccs2)cc1 [Compound 10],inactive
6,c1csc(C(c2ccc3ccccc3c2)C2CCNCC2)c1 (centres unmarked) [Compound 11],not active
7,CN1CCC(C(c2ccc3ccccc3c2)c2cccs2)CC1 (centres unmarked) [Compound 12],not active

# Tested on: Ras localization
# Assay: not given
# Details: at micromolar concentrations; cited from earlier work
row,SMILES,Ras mislocalization in cells
1,CCCCCCCCn1cc(CC(N)=O)c2cc(-c3cccc(C)c3)ccc21 [Cysmethynil],causes Ras mislocalization

# Reference: publication PMC4990076 (MedChemComm, 2016)
